Laboratory results reported in patent publication US4628061A, “Prostaglandins” (National Research Development Corporation, priority 1981, dated 1986).

How the values were obtained:
Assay type in all cases: cell-based
[1] = biological target: T1, thromboxane receptor sites (Oryctolagus cuniculus, UniProt Q6WQI8); assay: Rabbit Aorta System (inhibition of tension response of spiral strips of thoracic aorta to 11,9-(epoxymethano) PGH2); settings: for Kb: Gaddum-Schild Equation, agonist 11,9-(epoxymethano) PGH2, compound added 50 minutes before agonist, 37° C, typical values, read-out: Affinity Constants (KB) Rabbit Aorta (converted)
T1 construct: contraction to 11,9-(epoxymethano) PGH2 (U-46619)
T1 sequence (Q6WQI8 1-233): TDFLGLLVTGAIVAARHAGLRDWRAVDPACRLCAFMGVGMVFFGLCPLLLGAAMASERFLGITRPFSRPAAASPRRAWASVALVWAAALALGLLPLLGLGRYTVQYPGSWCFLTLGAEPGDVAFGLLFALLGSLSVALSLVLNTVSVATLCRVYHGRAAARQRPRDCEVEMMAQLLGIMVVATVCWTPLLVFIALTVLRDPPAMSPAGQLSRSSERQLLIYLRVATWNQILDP
Experimental: (§1) The compound of Example 2 and various of the compounds of Example 8 are tested in the following three systems.
Sprial strips of thoracic aorta are suspended in Kreb's-Henseleit solution aerated with 95% O2 /5% CO2 and maintained at 37° C. Tension changes are recorded with a Grass FTO3 force transducer. Initially, cumulative dose response curves to the agonist 11,9-(epoxymethano) PGH2 are obtained (typically at concentrations of 2×10^-9, 1×10^-8, 5×10^-8 and 2.5×10^-7 M). In a second experiment, the compound under test is added 50 minutes previous to the addition of the series of agonist doses.
(§2) In the case of each system, the affinity constant, KB, for the compound under test is calculated according to the Gaddum-Schild Equation (based on Law of Mass Action). [formula]

[2] = biological target: T2, thromboxane receptor sites (Cavia porcellus, UniProt A0A286Y4I8); assay: Guinea Pig Trachea System (inhibition of tension response of spiral strips of trachea to 11,9-(epoxymethano) PGH2); settings: Gaddum-Schild Equation; agonist 11,9-(epoxymethano) PGH2; atropine sulphate and indomethacin present; compound added 50 minutes before agonist; 37° C; typical values; read-out: Affinity Constants (KB) Guinea Pig Trachea (converted)
T2 construct: from tissue; host or cells: guinea pig trachea, spiral strips
T2 sequence (A0A286Y4I8 1-347): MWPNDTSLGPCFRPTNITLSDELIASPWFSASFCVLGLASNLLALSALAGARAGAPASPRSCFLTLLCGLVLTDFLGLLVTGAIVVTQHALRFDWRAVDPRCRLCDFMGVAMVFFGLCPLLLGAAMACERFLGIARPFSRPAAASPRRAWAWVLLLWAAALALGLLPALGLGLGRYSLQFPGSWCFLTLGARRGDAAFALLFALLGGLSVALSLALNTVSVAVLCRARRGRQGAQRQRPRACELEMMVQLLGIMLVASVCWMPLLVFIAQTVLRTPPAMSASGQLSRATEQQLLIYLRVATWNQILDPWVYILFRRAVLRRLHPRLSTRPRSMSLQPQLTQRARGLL
Experimental: as §1
Guinea Pig Trachea System
Spiral strips of trachea are suspended in Kreb's-Henseleit solution, additionally containing atropine sulphate (2×10^-8 M) and indomethacin (10^-6), aerated with 95% O2 /5% CO2 and maintained at 37° C. Tension changes are recorded with a Grass FTO3 force transducer. Initially, cumulative dose response curves to the agonist 11,9-(epoxymethano) PGH2 are obtained (typically at the same concentrations as for the rabbit aorta system). In a second experiment, the compound under test is added 50 minutes previous to the addition of the series of agonist doses.
as §2

[3] = biological target: T3, thromboxane receptor sites (Homo sapiens, UniProt P21731); assay: Human Platelet System (inhibition of aggregation by 11,9-(epoxymethano) PGH2 in platelet-rich plasma); settings: Gaddum-Schild Equation, agonist 11,9-(epoxymethano) PGH2, compound added 5 minutes before agonist, typical values, read-out: Affinity Constants (KB) Human Platelets (converted)
T3 construct: Platelet-rich plasma is obtained from fresh, citrated human blood; endogenous in cells; host or cells: human platelets in platelet-rich plasma from fresh citrated blood
T3 sequence (P21731 1-343): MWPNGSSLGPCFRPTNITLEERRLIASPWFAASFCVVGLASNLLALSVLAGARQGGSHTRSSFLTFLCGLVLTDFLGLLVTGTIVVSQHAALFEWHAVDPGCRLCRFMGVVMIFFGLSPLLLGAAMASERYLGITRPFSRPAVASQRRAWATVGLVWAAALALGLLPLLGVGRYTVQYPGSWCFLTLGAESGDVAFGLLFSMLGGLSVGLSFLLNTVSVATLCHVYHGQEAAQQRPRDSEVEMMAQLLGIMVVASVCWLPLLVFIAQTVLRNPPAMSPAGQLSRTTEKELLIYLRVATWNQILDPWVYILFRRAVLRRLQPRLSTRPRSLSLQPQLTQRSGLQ
Experimental: as §1
Platelet-rich plasma is obtained from fresh, citrated human blood. Addition of the agonist 11,9-(epoxymethano) PGH2 (1×10^-7 to 5×10^-7 M) causes immediate aggregation recorded as an increase in light transmission (600 nm). In a second experiment the compound under test is added 5 minutes previous to the addition to the PGH2 analogue. The dose of the PGH2 analogue added is then increased to a level which gives a similar response to that obtained in the absence of antagonist.
as §2

Structure (SMILES)	Kb [1] [nM]	pure antagonist activity in the rabbit aorta system ([1]; in words)	Kb [2] [nM]	Kb [3] [µM]
O=C(O)CCC/C=C\C[C@H]1[C@H]2CC[C@H](C2)[C@@H]1CNC(=O)Nc1ccccc1 (relative stereo) [--CH2 NHCONHC6 H5, 5-endo-(6'-Carboxyhex-2'Z-enyl)-6-exo-[N-(phenylcarbamoyl)-aminomethyl]-bicyclo[2,2,1]heptane]	1000	pure antagonist activity	323	3.57
COc1ccc(NC(=O)NCCC2C3C=CC(C3)C2C/C=C\CCCC(=O)O)cc1 (centres unmarked) [--(CH2)2 NHCONHC6 H4 OCH3 (p)]	833	–	145	–
COc1ccc(NC(=S)NC(C)CC2C3C=CC(C3)C2C/C=C\CCCC(=O)O)cc1 (centres unmarked) [--CH2 CH(CH3)NHCSNHC6 H4 OCH3 (p)]	1050	–	123	5

More lines, now with the values ahead:

Kb [1] [nM]	pure antagonist activity in the rabbit aorta system ([1]; in words)	Kb [2] [nM]	Kb [3] [µM]	Structure (SMILES)
345	–	196	29.4	O=C(O)CCC/C=C\CC1C2C=CC(C2)C1CCNC(=O)Nc1ccccc1 (centres unmarked) [--(CH2)2 NHCONHC6 H5]
526	–	–	12.5	COc1ccc(NC(=S)NCCC2C3C=CC(C3)C2C/C=C\CCCC(=O)O)cc1 (centres unmarked) [--(CH2)2 NHCSNHC6 H4 OCH3 (p)]
169	–	154	13.9	COc1ccc(NC(=S)NCC2C3C=CC(C3)C2C/C=C\CCCC(=O)O)cc1 (centres unmarked) [--CH2 NHCSNHC6 H4 OCH3 (p)]
